Source: ChEMBL document CHEMBL5724796, “Tm Shift (DSF) assay results for EUbOPEN Chemogenomics Library” (2024)
Values joined by “and” are separate entries in the source; they are usually repeats but may differ in a detail not shown here. Equal values may be shown once.

Key:
[1] = target: Fibroblast growth factor receptor 2 (Homo sapiens) (UniProt P21802); conditions: Compound concentration 20.0 uM
Description: Thermal Shift Assay. Domain: start/stop: T457-E768

Peregrin (Homo sapiens) = target: T1, Peregrin (Homo sapiens) (UniProt P55201); conditions: Compound concentration 20.0 uM
T1 sequence (whole entry): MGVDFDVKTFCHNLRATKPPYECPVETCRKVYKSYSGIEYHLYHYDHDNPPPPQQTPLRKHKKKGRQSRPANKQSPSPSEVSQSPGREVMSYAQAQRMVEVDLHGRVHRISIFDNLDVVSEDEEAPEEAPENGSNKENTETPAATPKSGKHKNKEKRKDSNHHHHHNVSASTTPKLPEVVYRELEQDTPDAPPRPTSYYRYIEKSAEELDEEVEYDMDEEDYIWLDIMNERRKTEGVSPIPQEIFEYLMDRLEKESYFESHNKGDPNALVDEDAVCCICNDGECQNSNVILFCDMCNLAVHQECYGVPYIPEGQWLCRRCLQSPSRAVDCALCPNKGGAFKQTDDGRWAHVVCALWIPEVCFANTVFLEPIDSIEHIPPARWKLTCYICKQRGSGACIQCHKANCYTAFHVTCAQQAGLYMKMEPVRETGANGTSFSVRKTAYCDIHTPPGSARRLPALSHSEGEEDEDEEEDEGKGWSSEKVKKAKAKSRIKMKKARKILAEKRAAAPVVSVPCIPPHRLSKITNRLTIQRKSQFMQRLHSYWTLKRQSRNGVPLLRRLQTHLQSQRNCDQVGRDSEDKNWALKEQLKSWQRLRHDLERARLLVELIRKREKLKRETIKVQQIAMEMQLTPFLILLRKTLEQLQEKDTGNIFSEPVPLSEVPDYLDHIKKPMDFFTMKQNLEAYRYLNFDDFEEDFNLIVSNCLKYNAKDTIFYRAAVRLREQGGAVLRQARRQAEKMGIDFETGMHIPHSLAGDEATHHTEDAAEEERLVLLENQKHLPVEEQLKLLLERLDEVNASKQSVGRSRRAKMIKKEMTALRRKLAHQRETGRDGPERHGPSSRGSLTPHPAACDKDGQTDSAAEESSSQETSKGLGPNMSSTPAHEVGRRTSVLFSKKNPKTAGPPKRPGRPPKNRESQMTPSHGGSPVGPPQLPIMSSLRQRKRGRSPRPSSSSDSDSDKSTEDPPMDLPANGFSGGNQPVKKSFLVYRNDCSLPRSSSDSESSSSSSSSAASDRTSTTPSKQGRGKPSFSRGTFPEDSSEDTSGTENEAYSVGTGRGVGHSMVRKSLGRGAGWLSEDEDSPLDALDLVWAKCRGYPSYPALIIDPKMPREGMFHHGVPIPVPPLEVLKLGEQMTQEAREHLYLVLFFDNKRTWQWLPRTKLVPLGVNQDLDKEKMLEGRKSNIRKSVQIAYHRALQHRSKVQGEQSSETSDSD

Sequence of Fibroblast growth factor receptor 2 (Homo sapiens) (P21802 22-821 limits assumed): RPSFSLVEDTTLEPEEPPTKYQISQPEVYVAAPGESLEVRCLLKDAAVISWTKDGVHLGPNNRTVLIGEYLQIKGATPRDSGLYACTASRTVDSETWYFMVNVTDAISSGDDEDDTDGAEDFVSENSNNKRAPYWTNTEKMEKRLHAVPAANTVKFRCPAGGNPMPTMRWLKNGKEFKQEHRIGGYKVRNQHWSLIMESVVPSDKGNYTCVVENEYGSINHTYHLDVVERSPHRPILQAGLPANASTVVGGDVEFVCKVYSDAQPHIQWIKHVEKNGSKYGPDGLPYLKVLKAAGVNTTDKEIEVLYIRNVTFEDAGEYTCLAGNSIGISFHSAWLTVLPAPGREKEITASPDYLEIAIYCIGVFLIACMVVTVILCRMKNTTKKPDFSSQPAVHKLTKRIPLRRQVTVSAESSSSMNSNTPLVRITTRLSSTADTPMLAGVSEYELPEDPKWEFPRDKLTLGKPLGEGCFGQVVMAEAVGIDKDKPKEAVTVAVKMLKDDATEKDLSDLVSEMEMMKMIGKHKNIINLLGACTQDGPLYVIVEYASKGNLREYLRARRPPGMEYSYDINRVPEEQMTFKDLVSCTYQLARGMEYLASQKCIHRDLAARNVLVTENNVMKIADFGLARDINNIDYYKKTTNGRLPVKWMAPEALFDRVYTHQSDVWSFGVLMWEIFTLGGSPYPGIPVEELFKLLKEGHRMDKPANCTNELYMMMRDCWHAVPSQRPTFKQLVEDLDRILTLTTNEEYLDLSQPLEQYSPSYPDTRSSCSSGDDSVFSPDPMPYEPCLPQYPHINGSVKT

Compound | ΔTm [1] | ΔTm (Peregrin (Homo sapiens); Protein concentration 2.0 uM) [°C] | ΔTm (Peregrin (Homo sapiens)) | ΔTm ([1]; tested as the 2H-labelled form) [°C] | ΔTm (Peregrin (Homo sapiens); tested as the 2H-labelled form) [°C]
CS(=O)(=O)c1ccc(-c2nnc(C=Cc3nnc(-c4ccc(C#N)cc4)o3)n2-c2ccccc2Cl)nc1 | 0.13 °C | 2 |  |  | 
O=[N+]([O-])c1cc(O)c(O)c([N+](=O)[O-])c1 | 0.52 °C |  | 2.24 °C |  | 
COc1ccc(N(C(=O)Oc2c(C)cccc2C)c2ccnc(Nc3ccc(N4CCN(C)CC4)cc3)n2)c(OC)c1 | 4.44 °C |  | -1.1 °C |  | 
Cc1ccc(NC2=CC(=O)c3sc(C)nc3C2=O)cc1 | -0.13 °C |  | -1.72 °C |  | 
CNc1nccc(CN([C@H]2CC[C@H](N)CC2)S(=O)(=O)c2ccc(S(=O)(=O)N(Cc3ccc(Cl)cc3)C3CCCC3)cc2)n1 | -1.14 °C |  | -1.21 °C |  | 
COc1nc(N)nc(Nc2cc(S(N)(=O)=O)ccc2N[C@@H](c2cccc3c2OC(F)(F)O3)c2ncccc2Cl)n1 | 1.9 °C |  | -3.63 °C |  | 
O=C(NO)c1cnc(NC2(c3ccccc3)CC2)nc1 | 0.35 °C |  | -1.33 °C |  | 
O=C(CCCCCCNC(=O)c1cnc(N(c2ccccc2)c2ccccc2)nc1)NO | -0.22 °C |  | -1.39 °C |  | 
CC#C[C@]1(O)CC[C@H]2[C@@H]3CCC4=CC(=O)CCC4=C3[C@@H](c3ccc(N(C)C)cc3)C[C@@]21C | 0.14 °C |  | -2.63 °C |  | 
COc1ncc(C)c(-c2ccc3c(c2)[nH]c(=O)c2cnn([C@H]4CCOC4)c23)c1C | -0.58 °C |  | 0.86 °C |  | 
O=C(CN1CCN(c2ccc(F)cn2)CC1)Nc1nc2c(s1)CCCC2 | -0.21 °C |  | 2.63 °C |  | 
CC(C)C(=O)SCCCCCCC(=O)Nc1nc(-c2ccccc2)cs1 | 1.03 °C |  | -1.14 °C |  | 
O=C1C(=O)N(Cc2ccccc2)c2ccc(S(=O)(=O)N3CCC[C@H]3COc3ccc(C(F)(F)F)cc3)cc21 | 1.01 °C |  | -2.14 °C |  | 
CNC(=O)c1cnc(N2CCC[C@H](N)C2)nc1Nc1cc(C(C)C)nc(C(C)C)c1 | -3.52 °C |  | -0.82 °C |  | 
COc1ccc(CNc2nc(N3CCC[C@H]3CO)ncc2C(=O)NCc2ncccn2)cc1Cl | -0.2 °C |  | 0.12 °C |  | 
FC(F)(F)Oc1ccc(Oc2ccnc(N3CCC(NC(=S)Nc4cccnc4)CC3)c2Cl)c(Cl)c1 | -3.46 °C and 0.73 °C |  | 0.92 °C and 3.5 °C |  | 
CC(C)[C@@H]1NC(=O)[C@H](Cc2ccc(O)cc2)NC(=O)[C@@H](CC(=O)O)NC(=O)S[C@@H](C(=O)O)NC(=O)[C@H]([C@H](C)O)NC(=O)[C@H](Cc2ccc(O)cc2)NC(=O)[C@H](Cc2c[nH]c3ccccc23)NC(=O)[C@H](CCCNC(=N)N)NC(=O)[C@H](Cc2c[nH]c3ccccc23)NC(=O)[C@H](C)NC(=O)[C@H](CO)NC(=O)[C@H](CCCNC(=N)N)NC(=O)[C@H]([C@H](C)O)NC(=O)[C@H](CC(N)=O)NC(=O)[C@H](Cc2ccc(O)cc2)NC1=O | 0.32 °C |  | 1.38 °C |  | 
CC#CCn1c(N2CCC[C@@H](N)C2)nc2c1c(=O)n(Cc1nc(C)c3ccccc3n1)c(=O)n2C | 0.28 °C |  | 0.04 °C |  | 
N#C[C@@H]1CCCN1C(=O)[C@@H]1CCCN1C(=O)CCCc1ccccc1 | 0.84 °C |  | -1.55 °C |  | 
CC(C)n1nc(-c2cc3cc(O)ccc3[nH]2)c2c(N)ncnc21 | 4.67 °C |  | 1.52 °C |  | 
COc1ccc(Cc2nc(O)c3c(C)nc([C@@H](CCCc4ccccc4)[C@@H](C)O)n3n2)cc1OC | 0.51 °C |  | 0.21 °C |  | 
Cn1nc(C(C)(C)C)cc1C(=O)NC(Cc1cccc(Cl)c1)C(=O)NCC#N (stereo unspecified) | 0.05 °C |  | 2.3 °C |  | 
COc1ccc(C(=O)C2CCN(CC(=O)N(Cc3nc4c(c(=O)[nH]3)COCC4)CC3CC3)CC2)cc1 | -0.62 °C |  | 2.73 °C |  | 
CC(C)Oc1ccc(C=O)cc1 | 0.13 °C |  | -0.07 °C |  | 
Nc1c[nH]c(=O)c2cc(-c3ccccc3)sc12 | 0.44 °C |  | -1.11 °C |  | 
CC1(C)Cn2nc(-c3ccc(F)cn3)c(-c3ccnc4[nH]ncc34)c2CO1 |  |  |  | 0.38 | -1.29
Cc1cc(C)cc(Oc2ccc(CNC(=O)[C@H](C)N)cc2C)c1 | 0.01 °C |  | -1.68 °C |  | 
CCCOC(=O)N1CCN(C(=O)c2ccc3c(Cl)cc(-c4ccc(C5(N)CC5)cc4)nc3c2)C[C@H]1C | -0.58 °C |  | -1.27 °C |  | 
